Measurements from ChEMBL document CHEMBL4406828, “Conformational restriction design of thiophene-biphenyl-DAPY HIV-1 non-nucleoside reverse transcriptase inhibitors” (Eur J Med Chem, 2019).

Legend:
[1] = target: Human immunodeficiency virus type 1 reverse transcriptase (Human immunodeficiency virus 1, UniProt Q72547); experiment: Inhibition of recombinant HIV-1 reverse transcriptase p66/p51 incubated for 40 mins by picogreen dye based spectrofluorometric assay
[2] = Cytotoxicity against human MT4 cells assessed as reduction in cell viability incubated for 4 days by MTT assay; type: cell-based
[3] = test system: Human immunodeficiency virus 1; experiment: Antiviral activity against HIV-1 harboring reverse transcriptase L100I mutant infected in human MT4 cells assessed as reduction in virus-induced cytopathic effect incubated for 4 days by MTT assay; type: functional, organism-based; conditions: Human immunodeficiency virus 1, MT4, 96 h
[4] = test system: Human immunodeficiency virus 1; experiment: Antiviral activity against HIV-1 harboring reverse transcriptase K103N mutant infected in human MT4 cells assessed as reduction in virus-induced cytopathic effect incubated for 4 days by MTT assay; type: functional, organism-based; conditions: Human immunodeficiency virus 1, MT4, 96 h
[5] = test system: Human immunodeficiency virus 1; experiment: Antiviral activity against HIV-1 harboring reverse transcriptase Y181C mutant infected in human MT4 cells assessed as reduction in virus-induced cytopathic effect incubated for 4 days by MTT assay; type: functional, organism-based; conditions: Human immunodeficiency virus 1, MT4, 96 h
[6] = test system: Human immunodeficiency virus 1; experiment: Antiviral activity against HIV-1 harboring reverse transcriptase E138K mutant infected in human MT4 cells assessed as reduction in virus-induced cytopathic effect incubated for 4 days by MTT assay; type: functional, organism-based; conditions: Human immunodeficiency virus 1, MT4, 96 h

IC50 [1]	Compound	CC50 at 96 h [2]	other results
0.031 µM	N#Cc1ccc(Nc2nc(Oc3ccc(-c4ccc(C#N)c(Cl)c4)cc3Cl)c3sccc3n2)cc1		
	Cc1ccnc2c1NC(=O)c1cccnc1N2C1CC1 [NEVIRAPINE]	> 15 µM	EC50 [3]: 1.99 µM; EC50 [4]: > 9.55 µM; EC50 [5]: > 15 µM; EC50 [6]: 0.2 µM
0.042 µM	Cc1cc(-c2ccc(Oc3nc(Nc4ccc(C#N)cc4)nc4ccsc34)cc2C)ccc1C#N		
	O=C1Nc2ccc(Cl)cc2[C@@](C#CC2CC2)(C(F)(F)F)O1 [EFAVIRENZ]	> 6.34 µM	
0.027 µM	Cc1cc(C#N)ccc1-c1ccc(Oc2nc(Nc3ccc(C#N)cc3)nc3ccsc23)cc1C		
0.062 µM	Cc1cc(-c2ccc(C#N)cc2F)ccc1Oc1nc(Nc2ccc(C#N)cc2)nc2ccsc12		
	Cc1cc(C#N)cc(C)c1Oc1nc(Nc2ccc(C#N)cc2)nc(N)c1Br [ETRAVIRINE]	> 4.61 µM	
0.065 µM	N#Cc1ccc(Nc2nc(Oc3ccc(-c4ccc(C#N)cc4F)cc3)c3sccc3n2)cc1		
